Laboratory results reported in patent publication US20060153912A1 (BASF Aktiengesellschaft, priority 2002, published 2006).
One block for each compound: values may come before it.

What was measured:
[1] = Color stability of 50% strength water/methanol solutions stirred at reflux (65° C.) in air, Gardner/Hazen color number
[2] = Color stability of 10% strength solutions in water/methanol (1:1), 7 h at 65° C., with and without stabilizer; type: physicochemical; details: 10% strength solution in water/methanol (1:1), no additive
Experimental: The experiments took place under the following conditions: 10% strength solutions in water/methanol (1:1)—7 h at 65° C.

[3] = 50% choline ascorbate solution, additive 1% by weight, reaction time 4 h
[4] = 50% solution in 1:1 water/methanol, without additive, reaction time 0 h
[5] = 50% solution in 1:1 water/methanol, without additive, reaction time 1 h
[6] = 50% solution in 1:1 water/methanol, without additive, reaction time 7 h
[7] = 50% choline ascorbate solution, additive 1% by weight, reaction time 3 h
[8] = 50% choline ascorbate solution, additive 1% by weight, reaction time 5 h

SMILES: OP(O)O [Phosphorous acid]
Color number Gardner [1, 3]: 0.7
Color number Hazen [1, 3]: 163

SMILES: C[N+](C)(C)CCO.[Cl-] [Choline chloride]
Color number Gardner [2]: 0.1
Color number Hazen [2]: 35

Color number Gardner [1, 3]: 0.2
Color number Hazen [1, 3]: 53
SMILES: O=C(O)CCCC[C@@H](S)CCS (racemic) [Dihydrolipoic acid]

Color number Gardner [1, 3]: 0.4
Color number Hazen [1, 3]: 122
SMILES: N[C@@H](CCC(=O)N[C@@H](CS)C(=O)NCC(=O)O)C(=O)O [Glutathione]

Color number Gardner [2]: 0.1
Color number Hazen [2]: 27
Color number Gardner [1, 4]: 0.1
Color number Hazen [1, 4]: 27
Color number Gardner [1, 5]: 0.1
Color number Hazen [1, 5]: 31
Color number Gardner [1, 6]: 0.1
Color number Hazen [1, 6]: 29
SMILES: O=C1O[C@H]([C@@H](O)CO)C(O)=C1O [L-(+)-Ascorbic acid]

Color number Gardner [1, 7]: 0.9
Color number Hazen [1, 7]: 162
Color number Gardner [1, 8]: 1.4
Color number Hazen [1, 8]: 237
SMILES: O=c1[nH]c(=O)c2[nH]c(=O)[nH]c2[nH]1 [Uric acid]

SMILES: C[N+](C)(C)CCO.O=C([O-])C(O)C(O)C(=O)O (stereo not drawn) [Choline bitartrate]
Color number Gardner [2]: 0.1
Color number Hazen [2]: 32
Color number Gardner [1, 4]: 0.1
Color number Hazen [1, 4]: 27
Color number Gardner [1, 5]: 0.1
Color number Hazen [1, 5]: 30
Color number Gardner [1, 6]: 0.1
Color number Hazen [1, 6]: 28

Color number Gardner [1, 3]: 0.1
Color number Hazen [1, 3]: 35
SMILES: N[C@@H](CS)C(=O)O [Cysteine]

SMILES: OB(O)c1ccccc1 [Phenylboronic acid]
Color number Gardner [1, 3]: 2.7
Color number Hazen [1, 3]: 589

Color number Gardner [2]: 0.1
Color number Hazen [2]: 31
Color number Gardner [1, 4]: 0.1
Color number Hazen [1, 4]: 26
Color number Gardner [1, 5]: 0.1
Color number Hazen [1, 5]: 28
Color number Gardner [1, 6]: 0.1
Color number Hazen [1, 6]: 31
SMILES: O=C1O[C@H]([C@@H](O)CO)C([O-])=C1O.[Na+] [Sodium ascorbate]

Color number Gardner [1, 3]: 0.9
Color number Hazen [1, 3]: 162
SMILES: CC(=O)N[C@@H](CS)C(=O)O [N-Acetylcysteine]
